What follows are molecules tested on SJSA-1 cells (assay: Protocol B: SJSA-1 CellTiter-Glo luminescent cell viability assay). Details: Homo sapiens, SJSA-1, read-out: SJSA1 IC50 (μM), Protocol B, SJSA-1.
CCC(O)(c1cc(F)c2c(c1)C(=O)N(Cc1ncc(C#N)cn1)[C@@]2(OC[C@@H](C)O)c1ccc(Cl)cc1)[C@H]1CC[C@H](O)CC1 (stereo partly drawn) [Example 512, 2-{[(1R)-1-(4-chlorophenyl)-7-fluoro-5-{1-hydroxy-1-[trans-4-hydroxycyclohexyl]propyl}-1-[(2R)-2-hydroxypropoxy]-3-oxo-2,3-dihydro-1H-isoindol-2-yl]methyl}pyrimidine-5-carbonitrile] was tested, and the IC50 was 0.025 µM. With Cn1cnc(C(C)(O)c2cc(F)c3c(c2)C(=O)N(Cc2ncc(C#N)cn2)[C@@]3(OCC2(F)COC2)c2ccc(Cl)cc2)c1 (stereo partly drawn) [Example 468, 2-{[(1R)-1-(4-chlorophenyl)-7-fluoro-1-[(3-fluorooxetan-3-yl)methoxy]-5-[1-hydroxy-1-(1-methyl-1H-imidazol-4-yl)ethyl]-3-oxo-2,3-dihydro-1H-isoindol-2-yl]methyl}pyrimidine-5-carbonitrile] the IC50 was 0.48 µM. Molecule [2H]C([2H])(O)C1(C([2H])([2H])O[C@]2(c3ccc(Cl)cc3)c3c(F)cc(C(C)(C)C4(F)CCOCC4)cc3C(=O)N2Cc2ncc(Cl)cn2)CC1 [Example 447, (3R)-3-(4-Chlorophenyl)-2-[(5-chloropyrimidin-2-yl)methyl]-4-fluoro-6-[1-(4-fluorooxan-4-yl)-1-hydroxyethyl]-3-({1-[hydroxy(^2H2)methyl]cyclopropyl}(^2H2)methoxy)-2,3-dihydro-1H-isoindol-1-one] has an IC50 of 0.011 µM.

These molecules were tested on SN40R2 cells (assay: Protocol B: SN40R2 CellTiter-Glo luminescent cell viability assay). Details: 72 h, read-out: SN40R2 IC50 (μM) (Protocol B).
CN1CCN(CC(C)(O)c2cc(F)c3c(c2)C(=O)N(Cc2ccc(Cl)cc2S(C)(=O)=O)[C@@]3(OC2CCOC2)c2ccc(Cl)cc2)CC1 (single isomer, unassigned) [Example 67] was tested, and the IC50 was 9.4 µM.

Same assay, conditions: read-out: SN40R2 % inhibition at 10
For CCC(O)(c1cc(F)c2c(c1)C(=O)N(Cc1ncc(C#N)cn1)[C@@]2(OC[C@@H](C)O)c1ccc(Cl)cc1)[C@H]1CC[C@H](O)CC1 (stereo partly drawn) [Example 512, 2-{[(1R)-1-(4-chlorophenyl)-7-fluoro-5-{1-hydroxy-1-[trans-4-hydroxycyclohexyl]propyl}-1-[(2R)-2-hydroxypropoxy]-3-oxo-2,3-dihydro-1H-isoindol-2-yl]methyl}pyrimidine-5-carbonitrile], the inhibition at 10 µM was 5%. In the case of Cn1cnc(C(C)(O)c2cc(F)c3c(c2)C(=O)N(Cc2ncc(C#N)cn2)[C@@]3(OCC2(F)COC2)c2ccc(Cl)cc2)c1 (stereo partly drawn) [Example 468, 2-{[(1R)-1-(4-chlorophenyl)-7-fluoro-1-[(3-fluorooxetan-3-yl)methoxy]-5-[1-hydroxy-1-(1-methyl-1H-imidazol-4-yl)ethyl]-3-oxo-2,3-dihydro-1H-isoindol-2-yl]methyl}pyrimidine-5-carbonitrile], the inhibition at 10 µM was 2%. [2H]C([2H])(O)C1(C([2H])([2H])O[C@]2(c3ccc(Cl)cc3)c3c(F)cc(C(C)(C)C4(F)CCOCC4)cc3C(=O)N2Cc2ncc(Cl)cn2)CC1 [Example 447, (3R)-3-(4-Chlorophenyl)-2-[(5-chloropyrimidin-2-yl)methyl]-4-fluoro-6-[1-(4-fluorooxan-4-yl)-1-hydroxyethyl]-3-({1-[hydroxy(^2H2)methyl]cyclopropyl}(^2H2)methoxy)-2,3-dihydro-1H-isoindol-1-one] gave an inhibition at 10 µM of 10%. CCC(O)(c1cc(F)c2c(c1)C(=O)N(Cc1ccc(C#N)cn1)[C@@]2(O[C@H]1CCOC1)c1ccc(Cl)cc1)c1ccn(C)c(=O)c1 (stereo partly drawn) [Example 374, 6-{[(1R)-1-(4-chlorophenyl)-7-fluoro-5-[1-hydroxy-1-(1-methyl-2-oxo-1,2-dihydropyridin-4-yl)propyl]-3-oxo-1-[(3S)-oxolan-3-yloxy]-2,3-dihydro-1H-isoindol-2-yl]methyl}pyridine-3-carbonitrile] was tested, and the inhibition at 10 µM was 2%. Molecule CCC(O)(c1cc(F)c2c(c1)C(=O)N(Cc1ccc(C#N)cn1)[C@@]2(O[C@@H]1CCOC1)c1ccc(Cl)cc1)c1cn(C)cn1 (stereo partly drawn) [Example 426, 6-{[(1R)-1-(4-chlorophenyl)-7-fluoro-5-[1-hydroxy-1-(1-methyl-1H-imidazol-4-yl)propyl]-3-oxo-1-[(3R)-oxolan-3-yloxy]-2,3-dihydro-1H-isoindol-2-yl]methyl}pyridine-3-carbonitrile] has an inhibition at 10 µM of 4%. For CCC(O)(CN1CC[C@@H](O)C1)c1cc(F)c2c(c1)C(=O)N(Cc1ncc(Cl)cn1)[C@@]2(O[C@H]1CCOC1)c1ccc(Cl)cc1 (single isomer, unassigned) [Example 526], the inhibition at 10 µM was 9%. [2H]C([2H])(c1ncc(Cl)cn1)N1C(=O)c2cc(C(C)(O)C3(F)CCOCC3)cc(F)c2[C@]1(O[C@H]1CCOC1)c1ccc(Cl)cc1 (stereo partly drawn) [Example 516, (3R)-3-(4-chlorophenyl)-2-[(5-chloropyrimidin-2-yl)dideuteromethyl]-4-fluoro-6-[1-(4-fluorooxan-4-yl)-1-hydroxyethyl]-3-[(3S)-oxolan-3-yloxy]-2,3-dihydro-1H-isoindol-1-one] showed an inhibition at 10 µM of 4%. CCC(O)(c1cc(F)c2c(c1)C(=O)N(Cc1ncc(Cl)cn1)[C@@]2(OC)c1ccc(Cl)cc1)C1CCNCC1 (stereo partly drawn) [Example 450, (3R)-3-(4-chlorophenyl)-2-[(5-chloropyrimidin-2-yl)methyl]-4-fluoro-6-[1-hydroxy-1-(piperidin-4-yl)propyl]-3-methoxy-2,3-dihydro-1H-isoindol-1-one] was tested, and the inhibition at 10 µM was 15%. CC[C@](O)(c1cc(F)c2c(c1)C(=O)N(Cc1ncc(Cl)cn1)[C@@]2(OCCO)c1ccc(Cl)cc1)C1(F)CCOCC1 [Example 502, (3R)-3-(4-chlorophenyl)-2-[(5-chloropyrimidin-2-yl)methyl]-4-fluoro-6-[(1S)-1-(4-fluorooxan-4-yl)-1-hydroxypropyl]-3-(2-hydroxyethoxy)-2,3-dihydro-1H-isoindol-1-one] was tested, and the inhibition at 10 µM was 11%. Work on CCC(O)(CN1CCNCC1)c1cc(F)c2c(c1)C(=O)N(Cc1ncc(Cl)cn1)[C@@]2(O[C@H]1CCOC1)c1ccc(Cl)cc1 (single isomer, unassigned) [Example 524] yielded an inhibition at 10 µM of 35%. Molecule CC[C@@](O)(c1cc(F)c2c(c1)C(=O)N(Cc1ccc(C)nc1C(=O)O)[C@@]2(OC)c1ccc(Cl)cc1)C1(F)CCOCC1 [Example 515, 3-{[(1R)-1-(4-chlorophenyl)-7-fluoro-5-[(1R)-1-(4-fluorooxan-4-yl)-1-hydroxypropyl]-1-methoxy-3-oxo-2,3-dihydro-1H-isoindol-2-yl]methyl}-6-methylpyridine-2-carboxylic acid] has an inhibition at 10 µM of 8%. For O=C1c2cc(C(O)C3CCS(=O)(=O)CC3)cc(F)c2[C@](OCC2(O)CC2)(c2ccc(Cl)cc2)N1Cc1ncc(Cl)cn1 (stereo partly drawn) [Example 399, 4-{[(1R)-1-(4-chlorophenyl)-2-[(5-chloropyrimidin-2-yl)methyl]-7-fluoro-1-[(1-hydroxycyclopropyl)methoxy]-3-oxo-2,3-dihydro-1H-isoindol-5-yl](hydroxy)methyl}-1λ6-thiane-1,1-dione], the inhibition at 10 µM was 2%. With CCC(O)(CN(C)C)c1cc(F)c2c(c1)C(=O)N(Cc1ncc(Cl)cn1)[C@@]2(O[C@H]1CCOC1)c1ccc(Cl)cc1 (stereo partly drawn) [Example 528, (3R)-3-(4-chlorophenyl)-2-[(5-chloropyrimidin-2-yl)methyl]-6-[1-(dimethylamino)-2-hydroxybutan-2-yl]-4-fluoro-3-[(3S)-oxolan-3-yloxy]-2,3-dihydro-1H-isoindol-1-one] the inhibition at 10 µM was 10%. CC[C@@](O)(c1cc(F)c2c(c1)C(=O)N(Cc1ncc(Cl)cn1)[C@@]2(OC[C@@H](C)O)c1ccc(Cl)cc1)C1CCN(C)CC1 [Example 562, (3R)-3-(4-chlorophenyl)-2-[(5-chloropyrimidin-2-yl)methyl]-4-fluoro-6-[(1S)-1-hydroxy-1-(1-methylpiperidin-4-yl)propyl]-3-[(2R)-2-hydroxypropoxy]-2,3-dihydro-1H-isoindol-1-one] was tested, and the inhibition at 10 µM was 1%. For C=C(CO)CO[C@]1(c2ccc(Cl)cc2)c2c(F)cc(C(O)(CC)c3cn(C)cn3)cc2C(=O)N1Cc1ccc(C#N)cn1 (stereo partly drawn) [Example 466, 6-{[(1R)-1-(4-chlorophenyl)-7-fluoro-5-[1-hydroxy-1-(1-methyl-1H-imidazol-4-yl)propyl]-1-(3-hydroxy-2-methylidenepropoxy)-3-oxo-2,3-dihydro-1H-isoindol-2-yl]methyl}pyridine-3-carbonitrile], the inhibition at 10 µM was 4%. CO[C@]1(c2ccc(Cl)cc2)c2c(F)cc(C(C)(O)C3CCN(CC(=O)O)CC3)cc2C(=O)N1Cc1ccc(Cl)cn1 (single isomer, unassigned) [Example 459] showed an inhibition at 10 µM of 7%. In the case of CCC(O)(c1cc(F)c2c(c1)C(=O)N(Cc1ncc(C#N)cn1)[C@@]2(OC1CCC(O)C1)c1ccc(Cl)cc1)c1cn(C)cn1 (stereo partly drawn) [Example 461, 2-{[(1R)-1-(4-chlorophenyl)-7-fluoro-5-[1-hydroxy-1-(1-methyl-1H-imidazol-4-yl)propyl]-1-[(trans-3-hydroxycyclopentyl)oxy]-3-oxo-2,3-dihydro-1H-isoindol-2-yl]methyl}pyrimidine-5-carbonitrile], the inhibition at 10 µM was 6%. Molecule Cn1cnc(C(O)(c2cc(F)c3c(c2)C(=O)N(Cc2ccc(C#N)cn2)[C@@]3(O[C@H]2CCOC2)c2ccc(Cl)cc2)C2CC2)c1 (stereo partly drawn) [Example 434, 6-{[(1R)-1-(4-chlorophenyl)-5-[cyclopropyl(hydroxy)(1-methyl-1H-imidazol-4-yl)methyl]-7-fluoro-3-oxo-1-[(3S)-oxolan-3-yloxy]-2,3-dihydro-1H-isoindol-2-yl]methyl}pyridine-3-carbonitrile] has an inhibition at 10 µM of 7%. Molecule CC(O)(c1cc(F)c2c(c1)C(=O)N(Cc1ccc(C#N)cn1)[C@@]2(OC[C@H](O)CF)c1ccc(Cl)cc1)C1(F)CCOCC1 (stereo partly drawn) [Example 579, 6-{[(1R)-1-(4-chlorophenyl)-7-fluoro-1-[(2S)-3-fluoro-2-hydroxypropoxy]-5-[1-(4-fluorooxan-4-yl)-1-hydroxyethyl]-3-oxo-2,3-dihydro-1H-isoindol-2-yl]methyl}pyridine-3-carbonitrile] has an inhibition at 10 µM of 4%.

Same assay, conditions: read-out: SN40R2 % inhibition at 10, Protocol B, SN40R2, at 10 μM
[2H]C([2H])(O)C([2H])([2H])O[C@]1(c2ccc(Cl)cc2)c2c(F)cc(C(O)(CC)C3(F)CCN(C)CC3)cc2C(=O)N1Cc1ncc(Cl)cn1 (stereo partly drawn) [Example 580, (3R)-3-(4-chlorophenyl)-2-[(5-chloropyrimidin-2-yl)methyl]-4-fluoro-6-[1-(4-fluoro-1-methylpiperidin-4-yl)-1-hydroxypropyl]-3-[2-hydroxy(1,1,2,2-tetradeutero)ethoxy]-2,3-dihydro-1H-isoindol-1-one] was tested, and the inhibition at 10 µM was 13%.

Same assay, conditions: read-out: SN40R2 % inhibition at 30
Work on Cn1cnc(C(O)(c2cc(F)c3c(c2)C(=O)N(Cc2ccc(C#N)cn2)[C@@]3(O[C@H]2CCOC2)c2ccc(Cl)cc2)C2CC2)c1 (stereo partly drawn) [Example 433, 6-{[(1R)-1-(4-chlorophenyl)-5-[cyclopropyl(hydroxy)(1-methyl-1H-imidazol-4-yl)methyl]-7-fluoro-3-oxo-1-[(3S)-oxolan-3-yloxy]-2,3-dihydro-1H-isoindol-2-yl]methyl}pyridine-3-carbonitrile] yielded an inhibition at 30 µM of 20%.

Same assay, conditions: read-out: SN40R2 IC50 (μM) (Protocol B)
Work on COc1nc(C)ccc1CN1C(=O)c2cc(C(C)(C)O)cc(F)c2[C@]1(OC)c1ccc(Cl)cc1 [Example 315, (3R)-3-(4-chlorophenyl)-4-fluoro-6-(2-hydroxypropan-2-yl)-3-methoxy-2-[(2-methoxy-6-methylpyridin-3-yl)methyl]-2,3-dihydro-1H-isoindol-1-one] yielded an IC50 of 13 µM. Molecule CO[C@]1(c2ccc(Cl)cc2)c2c(F)cc(C(C)(O)C3CCN(C)CC3)cc2C(=O)N1Cc1ccc(Cl)cn1 (stereo partly drawn) [Example 304, (3R)-3-(4-chlorophenyl)-2-[(5-chloropyridin-2-yl)methyl]-4-fluoro-6-[1-hydroxy-1-(1-methylpiperidin-4-yl)ethyl]-3-methoxy-2,3-dihydro-1H-isoindol-1-one] has an IC50 of 9 µM.
